According to patent publication US11142526B2, “Spirocycle compounds and methods of making and using same” (H. Lundbeck A/S, priority 2017, dated 2021):
Where two headings read alike, the source gives them in different places.

Experiments:
MAGL [1] = target: MAGL (Homo sapiens (Human), UniProt Q99685); assay: In vitro competitive activity-based protein profiling (gel-based, FP-Rh or HT-01 probe); assay type: biochemical
Description: In Vitro Competitive Activity-Based Protein Profiling.
Proteomes (human prefrontal cortex or cell membrane fractions) (50 μL, 1.0 mg/mL total protein concentration) were preincubated with varying concentrations of inhibitors at 37° C. After 30 min, FP-Rh or HT-01 (1.0 μL, 50 μM in DMSO) was added and the mixture was incubated for another 30 min at room temperature. Reactions were quenched with SDS loading buffer (15 μL—4×) and run on SDS-PAGE.

MAGL [2] = target: T1, MAGL (Mus musculus (Mouse), UniProt O35678); assay: Mouse brain proteomes from inhibitor treated mice (oral gavage, brain MAGL activity 4 h after administration); assay type: in vivo; conditions: 5 mg/kg oral gavage
T1 sequence (O35678 whole entry): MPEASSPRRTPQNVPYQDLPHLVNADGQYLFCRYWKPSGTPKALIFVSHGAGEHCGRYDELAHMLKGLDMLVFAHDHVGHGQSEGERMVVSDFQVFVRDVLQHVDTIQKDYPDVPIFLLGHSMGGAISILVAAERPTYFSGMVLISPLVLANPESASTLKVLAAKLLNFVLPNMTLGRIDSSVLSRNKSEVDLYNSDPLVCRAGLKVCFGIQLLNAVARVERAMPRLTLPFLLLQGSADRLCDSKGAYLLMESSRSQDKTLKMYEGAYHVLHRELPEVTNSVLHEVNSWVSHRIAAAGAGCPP
Description: Preparation of Mouse Brain Proteomes from Inhibitor Treated Mice.
Inhibitors were administered to wild-type C57B1/6J by oral gavage in a vehicle of polyethylene glycol.

MAGL [3] = target: T1, MAGL; assay: In vitro competitive activity-based protein profiling, mouse brain proteome; assay type: biochemical; conditions: for inhibition at 1 µM: mouse; for IC50: mouse brain
[4] = human PC3, read-out: MAGL % Inhibition at 1 μM (human PC3)
[5] = human PFC (prefrontal cortex), read-out: MAGL % Inhibition at 1 μM (human PFC)
[6] = human PC3, read-out: MAGL Human PC3 (IC50)

Chain of MAGL (Homo sapiens (Human), UniProt Q99685) (Q99685 whole entry): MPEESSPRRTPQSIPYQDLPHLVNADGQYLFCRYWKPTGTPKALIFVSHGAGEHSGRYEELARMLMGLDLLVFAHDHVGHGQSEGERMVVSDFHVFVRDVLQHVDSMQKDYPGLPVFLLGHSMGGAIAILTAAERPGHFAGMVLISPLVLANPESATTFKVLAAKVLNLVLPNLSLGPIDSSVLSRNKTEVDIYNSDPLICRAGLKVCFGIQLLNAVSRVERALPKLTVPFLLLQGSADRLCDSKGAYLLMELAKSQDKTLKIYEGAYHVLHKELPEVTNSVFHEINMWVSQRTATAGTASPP

CC1(NC(=O)c2cn3c(n2)CN(C2CC2)CC3)CCN(C(=O)OC(C(F)(F)F)C(F)(F)F)CC1 [Example 174, 1,1,1,3,3,3-Hexafluoropropan-2-yl 4-(7-cyclopropyl-5,6,7,8-tetrahydroimidazo[1,2-a]pyrazine-2-carboxamido)-4-methylpiperidine-1-carboxylate]
inhibition at 1 µM (MAGL [1]; [4]): > 75% | inhibition at 1 µM (MAGL [1]; [5]): > 75% | IC50 (MAGL [1]; [6]): < 100 nM | MAGL % Inhibition at 5 mg/kg (Mouse) (MAGL [2]): ### (% inhibition is greater than or equal to 75%) | inhibition at 1 µM (MAGL [3]): > 75%

O=C(OC(C(F)(F)F)C(F)(F)F)N1CCC2(CCCN2Cc2ccc3cc(F)ccc3n2)CC1 [Example 56, 1,1,1,3,3,3-Hexafluoropropan-2-yl 1-((6-fluoroquinolin-2-yl)methyl)-1,8-diazaspiro[4.5] decane-8-carboxylate]
IC50 (MAGL [1]; [6]): < 100 nM | MAGL % Inhibition at 5 mg/kg (Mouse) (MAGL [2]): ### (% inhibition is greater than or equal to 75%) | inhibition at 1 µM (MAGL [3]): > 75% | IC50 (MAGL [3]): < 100 nM

Cc1nc2cccnn2c1C(=O)N1CCCC12CCN(C(=O)OC(C(F)(F)F)C(F)(F)F)CC2 [Example 143, 1,1,1,3,3,3-Hexafluoropropan-2-yl 1-(2-methyl-imidazo[1,2-b]pyridazine-3-carbonyl)-1,8-diazaspiro[4.5] decane-8-carboxylate]
inhibition at 1 µM (MAGL [1]; [4]): > 75% | inhibition at 1 µM (MAGL [1]; [5]): > 75% | IC50 (MAGL [1]; [6]): < 100 nM | MAGL % Inhibition at 5 mg/kg (Mouse) (MAGL [2]): ### (% inhibition is greater than or equal to 75%) | inhibition at 1 µM (MAGL [3]): > 75%

O=C(OC(C(F)(F)F)C(F)(F)F)N1CCC2(CCCN2C(=O)c2cn3c(n2)CN(CC2CC2)CC3)CC1 [Example 154, 1,1,1,3,3,3-Hexafluoropropan-2-yl 1-(7-(cyclopropylmethyl)-5,6,7,8-tetrahydroimidazo[1,2-a]pyrazine-2-carbonyl)-1,8-diazaspiro[4.5] decane-8-carboxylate]
inhibition at 1 µM (MAGL [1]; [4]): > 75% | inhibition at 1 µM (MAGL [1]; [5]): > 75% | IC50 (MAGL [1]; [6]): < 100 nM | MAGL % Inhibition at 5 mg/kg (Mouse) (MAGL [2]): ### (% inhibition is greater than or equal to 75%) | inhibition at 1 µM (MAGL [3]): > 75%

O=C(OC(C(F)(F)F)C(F)(F)F)N1CCC2(CCCN2C(=O)c2cc3ccc(Cl)cc3s2)CC1 [Example 60, 1,1,1,3,3,3-Hexafluoropropan-2-yl 1-(6-chlorobenzo[b]thiophene-2-carbonyl)-1,8-diazaspiro[4.5] decane-8-carboxylate]
IC50 (MAGL [1]; [6]): < 100 nM | MAGL % Inhibition at 5 mg/kg (Mouse) (MAGL [2]): ### (% inhibition is greater than or equal to 75%) | inhibition at 1 µM (MAGL [3]): > 75% | IC50 (MAGL [3]): < 100 nM

CN(C(=O)c1nnc2n1CCN(C1CC1)C2)C1(C)CCN(C(=O)OC(C(F)(F)F)C(F)(F)F)CC1 [Example 20, 1,1,1,3,3,3-hexafluoropropan-2-yl 4-(7-cyclopropyl-N-methyl-5,6,7,8-tetrahydro-[1,2,4]triazolo[4,3-a]pyrazine-3-carboxamido)-4-methylpiperidine-1-carboxylate]
inhibition at 1 µM (MAGL [1]; [4]): > 75% | inhibition at 1 µM (MAGL [1]; [5]): > 75% | IC50 (MAGL [1]; [6]): < 100 nM | MAGL % Inhibition at 5 mg/kg (Mouse) (MAGL [2]): ### (% inhibition is greater than or equal to 75%) | inhibition at 1 µM (MAGL [3]): > 75%

O=C(OC(C(F)(F)F)C(F)(F)F)N1CCC2(CCCN2C(=O)C2(c3cnc(C4CC4)nc3)CC2)CC1 [Example 38, 1,1,1,3,3,3-Hexafluoropropan-2-yl 1-(1-(2-cyclopropylpyrimidin-5-yl)cyclopropane-1-carbonyl)-1,8-diazaspiro[4.5]decane-8-carboxylate]
inhibition at 1 µM (MAGL [1]; [4]): > 75% | inhibition at 1 µM (MAGL [1]; [5]): > 75% | IC50 (MAGL [1]; [6]): < 100 nM | MAGL % Inhibition at 5 mg/kg (Mouse) (MAGL [2]): ### (% inhibition is greater than or equal to 75%) | inhibition at 1 µM (MAGL [3]): > 75%

O=C(OC(C(F)(F)F)C(F)(F)F)N1CCC2(CCCN2C(=O)c2cncnc2N2CCCC2)CC1 [Example 5, 1,1,1,3,3,3-Hexafluoropropan-2-yl 1-(4-(pyrrolidin-1-yl)pyrimidine-5-carbonyl)-1,8-diazaspiro[4.5]decane-8-carboxylate]
inhibition at 1 µM (MAGL [1]; [5]): > 75% | IC50 (MAGL [1]; [6]): < 100 nM | IC50 (MAGL [1]; human PFC (prefrontal cortex), read-out: MAGL Human PFC (IC50)): < 100 nM | MAGL % Inhibition at 5 mg/kg (Mouse) (MAGL [2]): ### (% inhibition is greater than or equal to 75%) | inhibition at 1 µM (MAGL [3]): > 75%

CC1(NC(=O)c2cn3c(n2)CN(C(=O)C2(C)CC2)CC3)CCN(C(=O)OC(C(F)(F)F)C(F)(F)F)CC1 [Example 190, 1,1,1,3,3,3-Hexafluoropropan-2-yl 4-methyl-4-(7-(1-methylcyclopropane-1-carbonyl)-5,6,7,8-tetrahydroimidazo[1,2-a]pyrazine-2-carboxamido) piperidine-1-carboxylate]
inhibition at 1 µM (MAGL [1]; [4]): > 75% | IC50 (MAGL [1]; [6]): < 100 nM | MAGL % Inhibition at 5 mg/kg (Mouse) (MAGL [2]): # (% inhibition less or equal to 25%) | inhibition at 1 µM (MAGL [3]): > 75%

CC(C)C(=O)N1CCn2cc(C(=O)NC3(C)CCN(C(=O)OC(C(F)(F)F)C(F)(F)F)CC3)nc2C1 [Example 37, 1,1,1,3,3,3-Hexafluoropropan-2-yl 4-(7-isobutyryl-5,6,7,8-tetrahydroimidazo[1,2-a]pyrazine-2-carboxamido)-4-methylpiperidine-1-carboxylate]
inhibition at 1 µM (MAGL [1]; [4]): > 75% | inhibition at 1 µM (MAGL [1]; [5]): > 75% | IC50 (MAGL [1]; [6]): < 100 nM | MAGL % Inhibition at 5 mg/kg (Mouse) (MAGL [2]): # (% inhibition less or equal to 25%) | inhibition at 1 µM (MAGL [3]): > 75%

Cn1cc(Cl)c(C(=O)N2CCCC23CCN(C(=O)OC(C(F)(F)F)C(F)(F)F)CC3)n1 [Example 120, 1,1,1,3,3,3-Hexafluoropropan-2-yl 1-(4-chloro-1-methyl-1H-pyrazole-3-carbonyl)-1,8-diazaspiro[4.5] decane-8-carboxylate]
inhibition at 1 µM (MAGL [1]; [5]): > 75% | IC50 (MAGL [1]; [6]): < 100 nM | MAGL % Inhibition at 5 mg/kg (Mouse) (MAGL [2]): ### (% inhibition is greater than or equal to 75%) | inhibition at 1 µM (MAGL [3]): > 75%

COc1nccc(C2(C(=O)N3CCCC34CCN(C(=O)OC(C(F)(F)F)C(F)(F)F)CC4)CC2)n1 [Example 200, 1,1,1,3,3,3-Hexafluoropropan-2-yl 1-(1-(2-methoxypyrimidin-4-yl)cyclopropane-1-carbonyl)-1,8-diazaspiro [4.5]decane-8-carboxylate]
inhibition at 1 µM (MAGL [1]; [4]): > 75% | inhibition at 1 µM (MAGL [1]; [5]): > 75% | IC50 (MAGL [1]; [6]): < 100 nM | MAGL % Inhibition at 5 mg/kg (Mouse) (MAGL [2]): ### (% inhibition is greater than or equal to 75%) | inhibition at 1 µM (MAGL [3]): > 75%

O=C(OC(C(F)(F)F)C(F)(F)F)N1CCC2(CCCN2C(=O)c2cnn3c2CCCC3)CC1 [Example 148, 1.1,1,3,3,3-Hexafluoropropan-2-yl 1-(4,5,6,7-tetrahydropyrazolo [1,5-a]pyridine-3-carbonyl)-1,8-diazaspiro[4.5] decane-8-carboxylate]
inhibition at 1 µM (MAGL [1]; [4]): > 75% | inhibition at 1 µM (MAGL [1]; [5]): > 75% | IC50 (MAGL [1]; [6]): < 100 nM | MAGL % Inhibition at 5 mg/kg (Mouse) (MAGL [2]): ### (% inhibition is greater than or equal to 75%) | inhibition at 1 µM (MAGL [3]): > 75%

CC1(NC(=O)c2nnc3n2CCN(C2COC2)C3)CCN(C(=O)OC(C(F)(F)F)C(F)(F)F)CC1 [Example 207, 1,1,1,3,3,3-Hexafluoropropan-2-yl 4-methyl-4-(7-(oxetan-3-yl)-5,6,7,8-tetrahydro-[1,2,4]triazolo [4,3-a]pyrazine-3-carboxamido) piperidine-1-carboxylate]
inhibition at 1 µM (MAGL [1]; [4]): > 75% | inhibition at 1 µM (MAGL [1]; [5]): > 75% | IC50 (MAGL [1]; [6]): < 100 nM | MAGL % Inhibition at 5 mg/kg (Mouse) (MAGL [2]): ### (% inhibition is greater than or equal to 75%) | inhibition at 1 µM (MAGL [3]): > 75%
